Experimental data taken from publication PMC5218480 (PLoS ONE, 2017).

Test system: MV-4-11 cells
Experiment: Gene expression microarray analysis (Affymetrix PrimeView) and GSEA
Assay type: cell-based, human
Parameters: RFU PODN (11730768_x_at) / Fold change /veh PODN (11730768_x_at) / RFU LINC00158 (11744669_a_at) / Fold change /veh LINC00158 (11744669_a_at) / RFU DUSP10 (11751237_a_at) / Fold change /veh DUSP10 (11751237_a_at) / RFU ID3 (11757404_x_at) / Fold change /veh ID3 (11757404_x_at) / RFU PLEKHG5 (11737974_s_at) / Fold change /veh PLEKHG5 (11737974_s_at) / RFU LRRC4B (11730491_at) / Fold change /veh LRRC4B (11730491_at) / RFU GIMAP4 (11747438_a_at) / Fold change /veh GIMAP4 (11747438_a_at) / RFU KRT8 (11758183_x_at) / Fold change /veh KRT8 (11758183_x_at) / RFU CNN1 (11734310_a_at) / Fold change /veh CNN1 (11734310_a_at) / RFU VPS37D (11726825_at) / Fold change /veh VPS37D (11726825_at) / RFU C10orf10 (11716522_x_at) / Fold change /veh C10orf10 (11716522_x_at) / RFU KIR2DL2 /// KIR2DL4 /// KIR2DL5A /// KIR2DL5B /// KIR2DS1 /// KIR2DS2 /// KIR2DS3 /// KIR2DS4 /// KIR3DL3 /// KIR3DL3 /// KIR3DS1 (11738374_at) / Fold change /veh KIR2DL2 /// KIR2DL4 /// KIR2DL5A /// KIR2DL5B /// KIR2DS1 /// KIR2DS2 /// KIR2DS3 /// KIR2DS4 /// KIR3DL3 /// KIR3DL3 /// KIR3DS1 (11738374_at) / RFU C1QL1 (11718748_at) / Fold change /veh C1QL1 (11718748_at) / RFU TMPRSS4 (11747572_a_at) / Fold change /veh TMPRSS4 (11747572_a_at) / RFU HAMP (11756126_x_at) / Fold change /veh HAMP (11756126_x_at) / RFU RNFT2 (11725882_a_at) / Fold change /veh RNFT2 (11725882_a_at) / RFU NR4A2 (11747474_a_at) / Fold change /veh NR4A2 (11747474_a_at) / RFU ABCC12 (11746883_a_at) / Fold change /veh ABCC12 (11746883_a_at) / RFU TMEM136 (11760407_x_at) / Fold change /veh TMEM136 (11760407_x_at) / RFU CLDN22 /// WWC2 (11732394_at) / Fold change /veh CLDN22 /// WWC2 (11732394_at) / RFU HLA-DPB1 (11760878_x_at) / Fold change /veh HLA-DPB1 (11760878_x_at) / RFU SPINT1 (11716480_a_at) / Fold change /veh SPINT1 (11716480_a_at) / RFU GAP43 (11754022_s_at) / Fold change /veh GAP43 (11754022_s_at) / RFU A4GNT (11735810_at) / Fold change /veh A4GNT (11735810_at) / RFU PRB3 (11715151_x_at) / Fold change /veh PRB3 (11715151_x_at) / RFU TUBB4B (11761932_at) / Fold change /veh TUBB4B (11761932_at) / RFU CAPN14 (11732068_a_at) / Fold change /veh CAPN14 (11732068_a_at) / RFU TMCC2 (11721928_a_at) / Fold change /veh TMCC2 (11721928_a_at) / RFU IRGQ (11745062_a_at) / Fold change /veh IRGQ (11745062_a_at) / RFU FAM174B (11720279_a_at) / Fold change /veh FAM174B (11720279_a_at) / RFU TMPRSS4 (11748680_a_at) / Fold change /veh TMPRSS4 (11748680_a_at) / RFU FAM212B (11763350_a_at) / Fold change /veh FAM212B (11763350_a_at) / RFU PLEKHG5 (11743358_a_at) / Fold change /veh PLEKHG5 (11743358_a_at) / RFU ZSCAN30 (11745921_a_at) / Fold change /veh ZSCAN30 (11745921_a_at) / RFU CMKLR1 (11741424_a_at) / Fold change /veh CMKLR1 (11741424_a_at) / RFU LOC101060620 /// MAPK8IP1 (11723275_at) / Fold change /veh LOC101060620 /// MAPK8IP1 (11723275_at) / RFU SPTSSB (11747773_x_at) / Fold change /veh SPTSSB (11747773_x_at) / RFU PRSS12 (11739890_at) / Fold change /veh PRSS12 (11739890_at) / RFU BIN1 (11741810_x_at) / Fold change /veh BIN1 (11741810_x_at) / RFU WNT11 (11732464_a_at) / Fold change /veh WNT11 (11732464_a_at) / RFU C10orf10 (11716521_a_at) / Fold change /veh C10orf10 (11716521_a_at) / RFU C5orf56 (11738089_at) / Fold change /veh C5orf56 (11738089_at) / RFU CYB561 (11721691_x_at) / Fold change /veh CYB561 (11721691_x_at) / RFU ANKRD19P (11752326_a_at) / Fold change /veh ANKRD19P (11752326_a_at) / RFU OR2T12 /// OR2T33 /// OR2T8 (11738714_s_at) / Fold change /veh OR2T12 /// OR2T33 /// OR2T8 (11738714_s_at) / RFU VCAN (11748164_a_at) / Fold change /veh VCAN (11748164_a_at) / RFU JSRP1 (11732532_at) / Fold change /veh JSRP1 (11732532_at) / RFU KRTAP10-11 (11738290_x_at) / Fold change /veh KRTAP10-11 (11738290_x_at) / RFU MYO3A (11730013_a_at) / Fold change /veh MYO3A (11730013_a_at) / RFU EBF3 (11725865_a_at) / Fold change /veh EBF3 (11725865_a_at) / RFU CAMK2N1 (11719241_x_at) / Fold change /veh CAMK2N1 (11719241_x_at) / RFU C5orf56 (11738088_a_at) / Fold change /veh C5orf56 (11738088_a_at) / RFU OLFML3 (11715873_a_at) / Fold change /veh OLFML3 (11715873_a_at) / RFU LOC100653217 /// NTM (11731650_a_at) / Fold change /veh LOC100653217 /// NTM (11731650_a_at) / RFU MAPK11 (11762145_a_at) / Fold change /veh MAPK11 (11762145_a_at) / RFU FIZ1 (11724087_x_at) / Fold change /veh FIZ1 (11724087_x_at) / RFU OASL (11726364_x_at) / Fold change /veh OASL (11726364_x_at) / RFU SOX15 (11748057_x_at) / Fold change /veh SOX15 (11748057_x_at) / RFU CD79A (11719716_a_at) / Fold change /veh CD79A (11719716_a_at) / RFU HIST1H1D (11736915_at) / Fold change /veh HIST1H1D (11736915_at) / RFU CASKIN2 (11723855_a_at) / Fold change /veh CASKIN2 (11723855_a_at) / RFU LOC730098 (11760151_x_at) / Fold change /veh LOC730098 (11760151_x_at) / RFU OR4N2 (11742367_at) / Fold change /veh OR4N2 (11742367_at) / RFU PRRT2 (11749266_a_at) / Fold change /veh PRRT2 (11749266_a_at) / RFU SNX32 (11753110_a_at) / Fold change /veh SNX32 (11753110_a_at) / RFU CDHR5 (11726645_a_at) / Fold change /veh CDHR5 (11726645_a_at) / RFU RCAN1 (11760418_a_at) / Fold change /veh RCAN1 (11760418_a_at) / RFU FAM167A (11723789_a_at) / Fold change /veh FAM167A (11723789_a_at) / RFU FAM26E (11764081_at) / Fold change /veh FAM26E (11764081_at) / RFU ISYNA1 (11749810_s_at) / Fold change /veh ISYNA1 (11749810_s_at) / RFU ACY1 (11761880_at) / Fold change /veh ACY1 (11761880_at) / RFU 11764098_at / Fold change /veh 11764098_at / RFU SAMD14 (11745864_x_at) / Fold change /veh SAMD14 (11745864_x_at) / RFU NPB (11741838_a_at) / Fold change /veh NPB (11741838_a_at) / RFU TMPRSS6 (11731388_a_at) / Fold change /veh TMPRSS6 (11731388_a_at) / RFU KRTAP10-2 (11738614_at) / Fold change /veh KRTAP10-2 (11738614_at) / RFU ARHGAP8 /// PRR5-ARHGAP8 (11727945_x_at) / Fold change /veh ARHGAP8 /// PRR5-ARHGAP8 (11727945_x_at) / RFU KRTAP5-7 /// NADSYN1 (11734609_at) / Fold change /veh KRTAP5-7 /// NADSYN1 (11734609_at) / RFU RASL12 (11751679_a_at) / Fold change /veh RASL12 (11751679_a_at) / RFU CDKN2B (11736163_a_at) / Fold change /veh CDKN2B (11736163_a_at) / RFU PRF1 (11729649_at) / Fold change /veh PRF1 (11729649_at) / RFU, ZNF638 /// ZNF638-IT1 / Fold change vs veh, ZNF638 /// ZNF638-IT1 / RFU, PANK3 / Fold change vs veh, PANK3 / RFU, SH3YL1 / Fold change vs veh, SH3YL1 / RFU, ZEB2 / Fold change vs veh, ZEB2 / RFU, NRIP1 / Fold change vs veh, NRIP1 / RFU, PTTG1IP / Fold change vs veh, PTTG1IP / RFU, CAPN2 / Fold change vs veh, CAPN2 / RFU, MED14 / Fold change vs veh, MED14 / RFU, SNORA58 / Fold change vs veh, SNORA58 / RFU, C1orf63 / Fold change vs veh, C1orf63 / RFU, LRRFIP1 / Fold change vs veh, LRRFIP1 / RFU, NDUFAF7 / Fold change vs veh, NDUFAF7 / RFU, SLC12A2 / Fold change vs veh, SLC12A2 / RFU, IBTK / Fold change vs veh, IBTK / RFU, ESF1 / Fold change vs veh, ESF1 / Fold change vs veh, TMEM50B / RFU, TAOK1 / Fold change vs veh, TAOK1 / RFU, ACBD3 / Fold change vs veh, ACBD3 / RFU, TMA16 / Fold change vs veh, TMA16 / RFU, RWDD3 / Fold change vs veh, RWDD3 / RFU, BCAT1 / Fold change vs veh, BCAT1 / RFU, EDEM3 / Fold change vs veh, EDEM3 / RFU, TMEM33 / Fold change vs veh, TMEM33 / RFU, WDR75 / Fold change vs veh, WDR75 / RFU, AHCTF1 / Fold change vs veh, AHCTF1 / RFU, TFRC / Fold change vs veh, TFRC / RFU, ZDHHC17 / Fold change vs veh, ZDHHC17 / RFU, NOM1 / Fold change vs veh, NOM1 / RFU, ARL8B / Fold change vs veh, ARL8B / RFU, ZBTB11 / Fold change vs veh, ZBTB11 / RFU, TAMM41 / Fold change vs veh, TAMM41 / RFU, KIAA1704 /// LOC100996395 / Fold change vs veh, KIAA1704 /// LOC100996395 / RFU, ING1 / Fold change vs veh, ING1 / RFU, TRMT61B / Fold change vs veh, TRMT61B / RFU, FUBP3 / Fold change vs veh, FUBP3 / RFU, TP53 / Fold change vs veh, TP53 / RFU, TNKS2 / Fold change vs veh, TNKS2 / RFU, ZFP14 / Fold change vs veh, ZFP14 / RFU, ACTR2 / Fold change vs veh, ACTR2 / RFU, PPP3R1 / Fold change vs veh, PPP3R1 / RFU, PIK3R1 / Fold change vs veh, PIK3R1 / RFU, HNRNPA1 / Fold change vs veh, HNRNPA1 / RFU, RNF170 / Fold change vs veh, RNF170 / RFU, ZNF28 / Fold change vs veh, ZNF28 / RFU, RNGTT / Fold change vs veh, RNGTT / RFU, OGT / Fold change vs veh, OGT / RFU, BRD1 / Fold change vs veh, BRD1 / RFU, MARS / Fold change vs veh, MARS / RFU, ZNF655 / Fold change vs veh, ZNF655 / RFU, FAHD1 / Fold change vs veh, FAHD1 / RFU, BDP1 / Fold change vs veh, BDP1 / RFU, LRRCC1 / Fold change vs veh, LRRCC1 / RFU, ARID1A / Fold change vs veh, ARID1A / RFU, ZNF146 / Fold change vs veh, ZNF146 / RFU, ZNF330 / Fold change vs veh, ZNF330 / RFU, GPN3 / Fold change vs veh, GPN3 / RFU, C9orf123 / Fold change vs veh, C9orf123 / RFU, N4BP2L2 / Fold change vs veh, N4BP2L2 / RFU, ARFIP1 / Fold change vs veh, ARFIP1 / RFU, FAM179B / Fold change vs veh, FAM179B / RFU, BCL10 / Fold change vs veh, BCL10 / RFU, UHRF1BP1L / Fold change vs veh, UHRF1BP1L / RFU, BET1 / Fold change vs veh, BET1 / RFU, CNOT2 / Fold change vs veh, CNOT2 / RFU, ZNF268 / Fold change vs veh, ZNF268 / Fold change vs veh, ZNF507 / RFU, DGCR2 / Fold change vs veh, DGCR2 / RFU, WDSUB1 / Fold change vs veh, WDSUB1 / Fold change vs veh, HSP90B1 /// MIR3652 / RFU, ADSS / Fold change vs veh, ADSS / RFU, GK / Fold change vs veh, GK / RFU, ZNF148 / Fold change vs veh, ZNF148 / RFU, TAF9 / Fold change vs veh, TAF9 / RFU, SLC1A5 / Fold change vs veh, SLC1A5 / RFU, SLMO2 / Fold change vs veh, SLMO2 / RFU, ABCC4 / Fold change vs veh, ABCC4 / RFU, LOC101060439 /// RAP1B / Fold change vs veh, LOC101060439 /// RAP1B / RFU, RFX7 / Fold change vs veh, RFX7 / RFU, GTPBP10 / Fold change vs veh, GTPBP10 / RFU, CNEP1R1 / Fold change vs veh, CNEP1R1 / RFU, BIVM-ERCC5 /// ERCC5 / Fold change vs veh, BIVM-ERCC5 /// ERCC5 / RFU, ILF3 / Fold change vs veh, ILF3 / RFU 11762660_at / Fold change /veh 11762660_at / RFU VCAN (11757783_s_at) / Fold change /veh VCAN (11757783_s_at) / RFU DDX43 (11728927_at) / Fold change /veh DDX43 (11728927_at) / RFU KRT8 (11758188_x_at) / Fold change /veh KRT8 (11758188_x_at) / RFU NKD1 (11759106_at) / Fold change /veh NKD1 (11759106_at) / RFU SRD5A1 (11742802_a_at) / Fold change /veh SRD5A1 (11742802_a_at) / RFU TPSAB1 /// TPSB2 (11721975_s_at) / Fold change /veh TPSAB1 /// TPSB2 (11721975_s_at) / RFU GSTM3 (11746129_a_at) / Fold change /veh GSTM3 (11746129_a_at) / RFU IL23R (11737362_x_at) / Fold change /veh IL23R (11737362_x_at) / RFU TMEM51 (11727254_a_at) / Fold change /veh TMEM51 (11727254_a_at) / RFU PIWIL2 (11732686_x_at) / Fold change /veh PIWIL2 (11732686_x_at) / RFU ORM1 (11744905_x_at) / Fold change /veh ORM1 (11744905_x_at) / RFU CCDC152 (11743942_at) / Fold change /veh CCDC152 (11743942_at) / RFU ECM1 (11717891_a_at) / Fold change /veh ECM1 (11717891_a_at) / RFU IL23R (11748794_a_at) / Fold change /veh IL23R (11748794_a_at) / RFU TNFAIP8L3 (11732012_x_at) / Fold change /veh TNFAIP8L3 (11732012_x_at) / RFU MBOAT4 (11741988_at) / Fold change /veh MBOAT4 (11741988_at) / RFU 11764193_at / Fold change /veh 11764193_at / RFU TMEM53 (11763286_at) / Fold change /veh TMEM53 (11763286_at) / RFU MAGEB2 (11727129_at) / Fold change /veh MAGEB2 (11727129_at) / RFU TMEM200A (11744735_a_at) / Fold change /veh TMEM200A (11744735_a_at) / RFU CCDC152 (11751479_a_at) / Fold change /veh CCDC152 (11751479_a_at) / RFU FAM211A (11726209_a_at) / Fold change /veh FAM211A (11726209_a_at) / RFU RGS16 (11746705_a_at) / Fold change /veh RGS16 (11746705_a_at) / RFU VCAN (11755009_s_at) / Fold change /veh VCAN (11755009_s_at) / RFU RHOB (11743442_s_at) / Fold change /veh RHOB (11743442_s_at) / RFU RGS16 (11720943_a_at) / Fold change /veh RGS16 (11720943_a_at) / RFU RGS16 (11720944_at) / Fold change /veh RGS16 (11720944_at) / RFU, VPS4B / Fold change vs veh, VPS4B / RFU, CREB1 / Fold change vs veh, CREB1 / RFU, DNAJC13 / Fold change vs veh, DNAJC13 / RFU, GNAQ / Fold change vs veh, GNAQ / RFU, CDK5R1 / Fold change vs veh, CDK5R1 / RFU, ZRANB3 / Fold change vs veh, ZRANB3 / RFU, CUL4A / Fold change vs veh, CUL4A / RFU, CCNY / Fold change vs veh, CCNY / RFU, UFL1 / Fold change vs veh, UFL1 / RFU, COG3 / Fold change vs veh, COG3 / RFU, DIAPH2 / Fold change vs veh, DIAPH2 / RFU, SKA2 / Fold change vs veh, SKA2 / RFU, AFF3 / Fold change vs veh, AFF3 / RFU, LMF1 / Fold change vs veh, LMF1 / RFU, IPO11 / Fold change vs veh, IPO11 / RFU, DFFB / Fold change vs veh, DFFB / RFU, FOXP1 / Fold change vs veh, FOXP1 / RFU, CARD8 / Fold change vs veh, CARD8 / RFU, STRN3 / Fold change vs veh, STRN3 / RFU, ADK / Fold change vs veh, ADK / RFU, RASSF2 / Fold change vs veh, RASSF2 / RFU, WIPF1 / Fold change vs veh, WIPF1 / RFU, LARP1B / Fold change vs veh, LARP1B / RFU, RASA1 / Fold change vs veh, RASA1 / RFU, RB1 / Fold change vs veh, RB1 / RFU, PPFIA1 / Fold change vs veh, PPFIA1 / RFU, MAT2A / Fold change vs veh, MAT2A / RFU, CCT5 / Fold change vs veh, CCT5 / RFU, WDR92 / Fold change vs veh, WDR92 / RFU, CUX1 / Fold change vs veh, CUX1 / RFU, TTC7A / Fold change vs veh, TTC7A / RFU, TMEM135 / Fold change vs veh, TMEM135 / RFU, DEPTOR / Fold change vs veh, DEPTOR / RFU, CPM / Fold change vs veh, CPM / RFU, DNAJB6 / Fold change vs veh, DNAJB6 / RFU, CACNA2D3 / Fold change vs veh, CACNA2D3 / RFU, DTX4 / Fold change vs veh, DTX4 / RFU, TFCP2 / Fold change vs veh, TFCP2 / RFU, GMCL1 /// GMCL1P1 / Fold change vs veh, GMCL1 /// GMCL1P1 / RFU, AEBP2 / Fold change vs veh, AEBP2 / RFU, SNHG1 /// SNORD22 /// SNORD25 /// SNORD26 /// SNORD27 /// SNORD28 /// SNORD29 /// SNORD31 / Fold change vs veh, SNHG1 /// SNORD22 /// SNORD25 /// SNORD26 /// SNORD27 /// SNORD28 /// SNORD29 /// SNORD31 / Fold change (Aza/veh), C12orf56 (ProbeSet 11735607_a_at) / Fold change (ACY-1035/veh), C12orf56 (ProbeSet 11735607_a_at) / Fold change (Aza/veh), FGFR1OP (ProbeSet 11751329_s_at) / Fold change (ACY-1035/veh), FGFR1OP (ProbeSet 11751329_s_at) / Fold change (Aza/veh), VPS36 (ProbeSet 11739960_a_at) / Fold change (ACY-1035/veh), VPS36 (ProbeSet 11739960_a_at) / RFU SYPL1 (11715823_x_at) / Fold change /veh SYPL1 (11715823_x_at) / RFU IGFBP7 (11715501_s_at) / Fold change /veh IGFBP7 (11715501_s_at) / RFU REEP3 (11722064_at) / Fold change /veh REEP3 (11722064_at) / RFU IGLL1 (11728026_x_at) / Fold change /veh IGLL1 (11728026_x_at): dose or concentration left out as unconfirmed
Settings: MV-4-11 cells, 48 hours

Nc1ncn([C@@H]2O[C@H](CO)[C@@H](O)[C@H]2O)c(=O)n1 [azacitidine]
Fold change /veh OR2T12 /// OR2T33 /// OR2T8 (11738714_s_at): 1.07
